The values that follow come from patent publication US20240226227A9, “BONE DISEASE TREATMENT” (The University of Birmingham, priority 2019, published 2024).

Assay [1] deals with murine osteoblast cell line MC3T3. In words: Alizarin red mineralization assay, MC3T3 osteoblast cell line. Conditions: MC3T3 cells, 10 ng/ml PEPITEM in differentiation media, up to 21 days, vs untreated cells. Format: cell-based, mouse. The procedure: The spontaneously immortalised murine MC3T3-E1 cell line (ATCC, England, UK, CRL-2593) was brought up from liquid nitrogen and cultured in basal media made up of: αMEM media (Sigma-Aldrich™, St. Louis, MO, USA, M8042) supplemented with 2 mM L-Glutamine, 100 U/ml Penicillin and 100 μg/ml Streptomycin (all from Sigma-Aldrich™, G1146) and fetal bovine serum [(FBS) Biosera™, East Sussex, UK, FB1001]. […] Mineralisation was assessed using an Alizarin red staining quantification assay and ALP activity.
(§1) Osteoblasts were cultured in mineralization differentiation media in the presence or absence of PEPITEM (10 ng/ml) over a 21-day period, dependent on cell source. Mineralization was assessed by quantifying the amount of alizarin red (nM) or the level of alkaline phosphate activity (absorbance at 405 nm) per condition.
(§2) Alizarin red analysis was performed following the manufacturer's instructions (Caltag+Medsystems™, Buckingham, UK, SC8678). […] Alizarin red was quantified using ImageJ™ (NIH) by removing backing, converting to a binary image and measuring area fraction stained. […]

The test system of assay [2] is primary murine osteoblast cells. Briefly: Alizarin red mineralization assay, primary murine osteoblasts. Format: cell-based, mouse. Conditions: 10 ng/ml PEPITEM, vs untreated cells, paired t-test. The method, then:
Day 3-5 WT mouse pups were culled via decapitation and heads were washed briefly in 70% ethanol and kept hydrated in αMEM media supplemented with 2 mM L-Glutamine, 100 U/ml Penicillin and 100 μg/ml Streptomycin. Skin was removed from around calvaria using forceps, and the calvaria was dissected out and cleaned of any contaminating tissue. Calvaria were added to αMEM media supplemented with 1 mg/ml of collagenase d (Roche™, Basel, Switzerland, COLLD-RO). Tubes were then agitated at 37° C. for 10 minutes and the media discarded. αMEM media supplemented with 1 mg/ml of collagenase d was again added to calvaria and shaken at 37° C. for 30 minutes. […] Cells on ice were then spun down at 300 g for 4 minutes, resuspended in 1 ml of Basal media and counted using a haemocytometer. […]
as §1, §2

Assay [3] concerns primary human osteoblasts. In words: Alkaline phosphatase activity (mineralization), primary human osteoblasts. Conditions: 10 ng/ml PEPITEM, vs untreated cells, paired t-test. The assay is classed as cell-based. The method, then:
Human osteoarthritis subchondral joint tissue was obtained at the time of total knee and hip joint replacement operations from the Royal Orthopaedic Hospital (Birmingham). To isolate primary osteoblasts, cartilage was removed from the femoral condyles and tibial plateaus and cut into 2 mm^2 pieces. Samples were kept in media and cleaned of fat. Media contains DMEM (Sigma™, D6546), FCS (10%), GPS (1%), Non-essential amino acid (1%; Sigma™, M7145), β-glycerophosphate (2 mM; Sigma™—G9422) and L-Ascorbic acid (50 μg/ml; Sigma™, A5960). Bone chips were placed in T75 flasks in 10 ml of media, replacing media every 2-3 days. Main outgrowth occurs between 10-14 days, after which chips were placed in new flasks. […]
as §1
To measure alkaline phosphatase activity, cells were washed in PBS before being lysed in 100 μl of RIPA buffer (Thermo Fisher™, R0278) for 15 minutes on ice. […] The plate was wrapped in foil and left to run for 45 minutes at 37° C. in an incubated shaker (SciQuip™; Shropshire, UK) before being quantified using a Synergy HT plate reader (BioTek™) with absorbance set at 405 nm.

Assay [4] deals with long bones of wild-type mice. In words: Bone homeostasis in young healthy mice, microCT of long bones. Conditions: daily i.p. 300 μg for 14 days, vs PBS. Format: in vivo, mouse. The method, then:
(§3) All experiments were performed in accordance with UK Home Office regulations. For the animal studies, in each experiment wild-type (WT) animals were allocated at random to different experimental groups. Importantly, mice from the same litter were randomly distributed amongst the experimental groups, and where possible, they were equally distributed amongst experimental groups. Injections of peptide were carried out at the same time of day, with identical reagents when possible. The investigators were not blinded to allocation during experiments and outcome assessment. All samples analyzed were included in the study.
(§4) WT mice were housed in the Biomedical Services Unit at the University of Birmingham. Mice were used between 6 and 16 weeks of age. • 1. Homeostasis—Six-week-old male wild-type mice were treated with or without daily intraperitoneal (i.p.) injections of PEPITEM (300 μg) for 2 weeks. Mice were culled at 2 weeks to examine the effect of PEPITEM on bone homeostasis in young resting bones. • 2. Ovariectomy (model of age-related osteoporosis)—Twelve-week-old female wild-type mice were subjected to ovariectomy (OVX). Two weeks post-surgery, mice were treated with or without daily i.p. injections of PEPITEM (300 μg) for 2 weeks. Mice were culled at 2 weeks to obtain baseline bone loss measurements, or at 4 weeks to examine the effect of PEPITEM on OVX-induced bone loss. • 3. Analysis of murine bone parameters—Histomorphometry analysis was performed on long bones (femur; tibia) and/or spine to determine the effects of PEPITEM on the structural architecture of the tissue, cellular distribution and bone volume, including TRAP and Toluidine blue staining for osteoclasts and osteoblasts respectively. For information on these staining methods, see Das, P. et al., PNAS, 2018, 115(43), E10137-E10146 and Waddington, R. J. and Sloan, A. J. eds. Tissue Engineering and Regeneration in Dentistry: Current Strategies. West Sussex: John Wiley & Sons. Femurs were subjected to a 3-point bending test using a Bose 5500 (Bose) to determine the stiffness of the bones and the force required to fracture the bone. For more information on the 3-point bending test method, see Huesa, C. et al., Bone, 2011, 48(5), 1066-1074.

In assay [5] the test system is vertebra of wild-type mice. In words: Bone homeostasis in young healthy mice, microCT of vertebra. Conditions: daily i.p. 300 μg for 14 days, vs PBS. Format: in vivo, mouse. The procedure: as §3, §4
The test system of assay [6] is long bones of wild-type mice. Briefly: 3-point bending test of long bones ex vivo after treatment of mice. Format: in vivo, mouse. Conditions: daily injections for 14 days, vs PBS. The procedure: as §4
Assay [7] concerns ovariectomized wild-type mice. Briefly: Ovariectomy model of age-related osteoporosis, microCT of long bones. Conditions: OVX mice. The assay is classed as in vivo, mouse. The method, then: as §3, §4
Assay [8] has as its system osteoclasts and chondroclasts in tibia of wild-type mice. Briefly: TRAP staining of decalcified tibia sections, osteoclast and chondroclast counts. Format: in vivo, mouse. Conditions: daily injections for 14 days, vs PBS. The procedure:
WT mice were housed in the Biomedical Services Unit at the University of Birmingham. Mice were used between 6 and 16 weeks of age. • 1. Homeostasis—Six-week-old male wild-type mice were treated with or without daily intraperitoneal (i.p.) injections of PEPITEM (300 μg) for 2 weeks. Mice were culled at 2 weeks to examine the effect of PEPITEM on bone homeostasis in young resting bones. • 2. Ovariectomy (model of age-related osteoporosis)—Twelve-week-old female wild-type mice were subjected to ovariectomy (OVX). Two weeks post-surgery, mice were treated with or without daily i.p. injections of PEPITEM (300 μg) for 2 weeks. Mice were culled at 2 weeks to obtain baseline bone loss measurements, or at 4 weeks to examine the effect of PEPITEM on OVX-induced bone loss. • 3. […]
For analysis of whole hind limb sections, Zen Blue software (ZEISS, Cambridge, UK) was used to break whole leg scans into regions of 20 μm by 20 μm, which were saved as images (JPEG) and opened on ImageJ™ (National institute of health (NIH); Maryland, USA). […] Osteoclasts were counted per region using ImageJ™ count maxima tool, where maxima were defined according to noise tolerance to neighboring squares and given as total number of osteoclasts per section. […]

[9] abbreviates: long bones, daily i.p. 300 μg for 2 weeks from 2 weeks post surgery, vs untreated.

As for “PEPITEM (SVTEQGAELSNEER; listed as Homo sapiens)”, the “production of bone mineral (Alizarin Red staining)” value in assay [1] is “stimulates the production of bone mineral”. The “osteoblast mineralization (Alizarin Red staining)” value in assay [2] is reported as “significantly increased”. Moreover, the “osteoblast mineralization (alkaline phosphatase activity)” value in assay [3] was “significantly increased”. Also, in assay [4], the “bone volume to trabecular bone volume ratio (BV/TV)” value is given as “significantly increased”, the trabecular number entry is recorded as “significantly increased”, the trabecular separation entry was “decreased” and the trabecular thickness result is “significantly increased”. In assay [5], the “bone volume to trabecular bone volume ratio (BV/TV)” value is “significantly increased”, the trabecular number entry is given as “significantly increased”, the trabecular separation result is listed as “decreased” and the trabecular thickness entry is “significantly increased”. Further, in assay [6], the bending force entry is listed as “significantly increased”, the fracture force entry is “significantly increased” and the “stiffness of the bone” value is listed as “significantly increased”. In addition, in assay [7] (4 weeks post surgery, compared to 2-week untreated (baseline) mice), the “additional bone loss after ovariectomy” value was “prevented additional bone loss”. In assay [7] (setting [9]), the “bone volume to trabecular bone volume ratio (BV/TV)” value is listed as “significantly increased”, the trabecular number entry was “significantly increased”, the trabecular separation result is recorded as “decreased” and the trabecular thickness entry is “significantly increased”. In addition, in assay [8], the “number of chondroclasts per μm” value is given as “reduced” and the “number of osteoclasts per mm^2 within the tibia” value is given as “significantly reduces”.
